According to patent US20260259194A1, “METHOD OF MONITORING MESENCHIMAL STEM CELL (MSC) POTENCY AND IMPROVING MSC DIFFERENTIATION POTENTIAL” (AGENCY FOR SCIENCE, TECHNOLOGY AND RESEARCH, priority 2022, published 2026):

Legend:
Type in all cases: cell-based, human
MSCs [1] = assay: MSC proliferation with HOXA9 inhibitor; conditions: compared with DMSO control
Protocol: (§1) To validate the effects of HOXA9 knockdown on MSCs, effects of HOXA9 specific inhibitor DB818 on MSCs were determined.

MSCs [2] = assay: CFU-F (colony formation) of MSCs; conditions: compared with DMSO control
Protocol: as §1

MSCs [3] = assay: Three-lineage differentiation of MSCs, staining (oil red, AP, alcian blue); conditions: compared with DMSO control
Description: (§2) Differentiation potential is the most important property of MSCs. To determine the effects of HOXA9 knockdown on the differentiation potential of MSCs into three lineages, HOXA9 knockdown and scrambled MSCs were induced into three lineages of differentiation. Compared with scrambled control, HOXA9 knockdown decreased oil red stain for oil droplet in adipogenesis, AP stain for alkaline phosphatase in osteogenesis and alcian blue stain for proteoglycan in chondrogenesis [FIG. 6a]. Stain data were validated by qPCR for lineage specific genes, compared with scrambled control, HOXA9 knockdown decreased adipogenenic genes (CEBPα, PPARγ, LPL and αP2), osteogenic genes (OC, OPN and ALP) and chondrogenic genes (COL2A1, AGC1, SOX9 and COL10A1) [FIG. 6b]. AP assay for quantifying alkaline phosphatase activity was consistent with AP stain, HOXA9 knockdown decreased alkaline phosphatase activity [FIG. 6b].
as §1

MSCs [4] = assay: qPCR for lineage specific genes in differentiated MSCs; conditions: compared with control
Description: as §2, §1

N=C(N)c1ccc(-c2ccc(-c3nc4ccc(C(=N)N)cc4[nH]3)s2)cc1 [DB818]
abolished: MSC proliferation (MSCs [1]) | CFU-F (MSCs [2])
decreased: oil red stain for oil droplet in adipogenesis (MSCs [3]; adipogenesis) | alcian blue stain for proteoglycan in chondrogenesis (MSCs [3]; chondrogenesis) | AP stain for alkaline phosphatase in osteogenesis (MSCs [3]; osteogenesis) | adipogenenic genes (CEBPα, PPARγ, LPL and αP2) (MSCs [4]) | chondrogenic genes (COL2A1, AGC1, SOX9 and COL10A1) (MSCs [4]) | osteogenic genes (RUNX2 and COL1A1) (MSCs [4])
